Laboratory results taken from patent publication US10344060B2 (priority 2013, dated 2019).
Like-named read-outs stand apart in the source and are kept apart here.

Assays:
[1] = target: hNav1.7 (Homo sapiens, UniProt Q15858); experiment: cell-based; assay type: cell-based; details: for IC50: PatchXpress, read-out: PX hNav1.7 Tonic IC50
[2] = target: hNav1.4 (Homo sapiens, UniProt P35499); experiment: cell-based; assay type: cell-based; details: for IC50: PatchXpress, read-out: PX hNav1.4 Tonic IC50; for Nav1.4/Nav1.7: ratio of PX tonic IC50 values
Chain of hNav1.4 (P35499 whole entry): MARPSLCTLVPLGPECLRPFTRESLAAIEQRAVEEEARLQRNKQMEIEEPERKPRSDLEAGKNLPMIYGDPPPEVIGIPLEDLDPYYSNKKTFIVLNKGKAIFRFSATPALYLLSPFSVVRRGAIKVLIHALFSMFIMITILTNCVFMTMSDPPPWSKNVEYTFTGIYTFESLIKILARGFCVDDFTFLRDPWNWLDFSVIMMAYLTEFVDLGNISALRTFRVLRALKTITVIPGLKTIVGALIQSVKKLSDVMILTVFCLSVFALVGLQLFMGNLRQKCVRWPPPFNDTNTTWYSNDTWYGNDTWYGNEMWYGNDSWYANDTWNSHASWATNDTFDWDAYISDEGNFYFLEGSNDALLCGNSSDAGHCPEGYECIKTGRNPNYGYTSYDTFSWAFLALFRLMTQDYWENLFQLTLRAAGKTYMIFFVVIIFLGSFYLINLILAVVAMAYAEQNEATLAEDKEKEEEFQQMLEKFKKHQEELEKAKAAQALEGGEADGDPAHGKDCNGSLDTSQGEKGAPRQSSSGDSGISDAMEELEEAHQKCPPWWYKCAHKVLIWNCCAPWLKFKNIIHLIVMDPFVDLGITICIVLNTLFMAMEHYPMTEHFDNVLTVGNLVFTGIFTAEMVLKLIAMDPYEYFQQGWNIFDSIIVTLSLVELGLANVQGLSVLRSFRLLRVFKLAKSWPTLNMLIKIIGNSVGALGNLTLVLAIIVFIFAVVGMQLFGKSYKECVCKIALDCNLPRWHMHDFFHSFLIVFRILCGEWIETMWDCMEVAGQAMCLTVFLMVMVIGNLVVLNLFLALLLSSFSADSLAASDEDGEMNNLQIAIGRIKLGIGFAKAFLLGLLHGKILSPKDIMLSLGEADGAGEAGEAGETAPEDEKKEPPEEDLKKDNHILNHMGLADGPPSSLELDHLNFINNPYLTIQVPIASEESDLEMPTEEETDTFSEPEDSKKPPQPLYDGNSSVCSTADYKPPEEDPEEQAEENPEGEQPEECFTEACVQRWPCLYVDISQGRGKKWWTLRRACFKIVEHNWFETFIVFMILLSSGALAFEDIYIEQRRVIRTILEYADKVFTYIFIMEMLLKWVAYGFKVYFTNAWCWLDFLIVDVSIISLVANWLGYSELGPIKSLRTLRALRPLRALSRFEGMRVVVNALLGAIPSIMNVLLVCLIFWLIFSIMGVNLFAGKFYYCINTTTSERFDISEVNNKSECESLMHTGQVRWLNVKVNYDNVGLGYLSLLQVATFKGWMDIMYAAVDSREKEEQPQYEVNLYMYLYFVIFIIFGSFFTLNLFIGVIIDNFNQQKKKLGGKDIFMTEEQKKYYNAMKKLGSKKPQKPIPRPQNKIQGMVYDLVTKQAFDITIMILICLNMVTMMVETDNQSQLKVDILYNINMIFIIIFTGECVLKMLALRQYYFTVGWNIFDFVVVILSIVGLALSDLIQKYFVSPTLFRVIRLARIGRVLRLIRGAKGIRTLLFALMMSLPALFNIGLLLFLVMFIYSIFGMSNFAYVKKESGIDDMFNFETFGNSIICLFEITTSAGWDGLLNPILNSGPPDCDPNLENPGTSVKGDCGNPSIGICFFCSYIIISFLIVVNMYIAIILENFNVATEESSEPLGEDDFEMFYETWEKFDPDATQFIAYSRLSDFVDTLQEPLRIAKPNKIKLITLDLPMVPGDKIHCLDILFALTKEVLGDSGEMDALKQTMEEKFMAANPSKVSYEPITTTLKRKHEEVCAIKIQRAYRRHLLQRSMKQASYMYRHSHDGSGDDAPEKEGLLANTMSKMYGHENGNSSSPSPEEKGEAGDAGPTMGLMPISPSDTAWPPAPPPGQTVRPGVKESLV

Chain of hNav1.7 (Q15858 whole entry): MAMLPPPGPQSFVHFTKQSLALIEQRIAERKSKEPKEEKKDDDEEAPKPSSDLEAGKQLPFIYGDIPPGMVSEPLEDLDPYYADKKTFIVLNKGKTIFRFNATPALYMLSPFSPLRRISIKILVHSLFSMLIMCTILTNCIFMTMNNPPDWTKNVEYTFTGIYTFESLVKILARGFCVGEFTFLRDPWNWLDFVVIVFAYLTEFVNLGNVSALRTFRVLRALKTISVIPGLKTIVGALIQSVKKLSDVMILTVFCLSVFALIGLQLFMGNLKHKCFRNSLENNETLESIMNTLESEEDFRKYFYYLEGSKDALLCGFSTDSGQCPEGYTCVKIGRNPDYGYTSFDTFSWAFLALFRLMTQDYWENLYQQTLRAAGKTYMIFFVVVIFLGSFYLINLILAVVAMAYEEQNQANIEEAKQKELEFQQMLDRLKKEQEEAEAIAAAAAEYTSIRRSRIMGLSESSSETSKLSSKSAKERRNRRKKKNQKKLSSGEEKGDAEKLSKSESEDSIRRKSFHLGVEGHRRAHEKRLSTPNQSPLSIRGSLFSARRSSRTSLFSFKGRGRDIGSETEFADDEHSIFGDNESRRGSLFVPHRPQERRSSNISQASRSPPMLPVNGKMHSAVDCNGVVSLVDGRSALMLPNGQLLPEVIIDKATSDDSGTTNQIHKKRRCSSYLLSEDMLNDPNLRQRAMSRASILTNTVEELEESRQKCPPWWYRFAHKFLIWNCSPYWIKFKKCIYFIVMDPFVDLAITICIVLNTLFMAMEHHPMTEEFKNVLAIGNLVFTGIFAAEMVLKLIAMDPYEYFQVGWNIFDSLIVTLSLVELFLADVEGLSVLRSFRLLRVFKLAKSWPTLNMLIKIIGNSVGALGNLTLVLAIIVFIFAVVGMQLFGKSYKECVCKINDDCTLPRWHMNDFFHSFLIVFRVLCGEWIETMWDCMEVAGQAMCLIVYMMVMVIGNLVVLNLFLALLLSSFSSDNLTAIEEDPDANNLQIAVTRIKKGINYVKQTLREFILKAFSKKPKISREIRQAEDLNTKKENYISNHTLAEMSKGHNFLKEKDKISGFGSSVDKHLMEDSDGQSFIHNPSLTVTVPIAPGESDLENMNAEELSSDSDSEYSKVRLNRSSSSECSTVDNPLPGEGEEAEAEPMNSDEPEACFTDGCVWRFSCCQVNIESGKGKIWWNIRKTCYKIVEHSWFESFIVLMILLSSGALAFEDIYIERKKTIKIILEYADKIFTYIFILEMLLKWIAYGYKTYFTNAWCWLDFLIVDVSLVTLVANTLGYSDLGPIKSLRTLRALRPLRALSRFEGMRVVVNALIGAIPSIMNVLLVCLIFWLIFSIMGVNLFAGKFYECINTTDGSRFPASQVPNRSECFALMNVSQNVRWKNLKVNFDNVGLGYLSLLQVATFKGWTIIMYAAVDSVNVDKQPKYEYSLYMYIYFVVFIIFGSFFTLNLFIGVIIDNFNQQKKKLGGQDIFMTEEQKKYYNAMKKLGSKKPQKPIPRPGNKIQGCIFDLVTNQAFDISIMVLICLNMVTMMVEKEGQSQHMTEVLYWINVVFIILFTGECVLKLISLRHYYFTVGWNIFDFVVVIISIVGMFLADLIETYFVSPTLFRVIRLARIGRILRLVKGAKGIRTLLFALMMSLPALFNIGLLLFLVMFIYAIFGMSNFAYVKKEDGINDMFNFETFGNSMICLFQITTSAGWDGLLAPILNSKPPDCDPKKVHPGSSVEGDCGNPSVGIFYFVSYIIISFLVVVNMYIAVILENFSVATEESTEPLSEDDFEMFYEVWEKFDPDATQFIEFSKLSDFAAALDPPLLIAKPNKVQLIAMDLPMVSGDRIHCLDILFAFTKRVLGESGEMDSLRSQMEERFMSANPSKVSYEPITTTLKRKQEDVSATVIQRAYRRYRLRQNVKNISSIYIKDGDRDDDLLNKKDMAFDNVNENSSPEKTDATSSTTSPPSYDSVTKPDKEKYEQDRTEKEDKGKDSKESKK

Structure (SMILES) | IC50 ([1]; tonic, Table 11) [nM] | Nav1.4/Nav1.7 ([1]; ratio of PX tonic IC50 values, Table 11) | IC50 ([2]; tonic, Table 11) [nM] | IC50 ([1]; Table 12, tonic block) [nM] | IC50 ([2]; Table 12, tonic block) [nM] | Nav1.4/Nav1.7 ([2]; Table 12)
CC[C@H](C)[C@H](NC(=O)[C@@H](NC(=O)[C@H](CCCCN)NC(=O)[C@H](CCCNC(=N)N)NC(=O)[C@@H]1CSSC[C@@H]2NC(=O)[C@H](C)NC(=O)[C@H](CCCNC(=N)N)NC(=O)[C@H](CCCCN)NC(=O)[C@H](CO)NC(=O)[C@H](CC(=O)O)NC(=O)[C@@H]3CSSC[C@H](NC(=O)[C@H](CCCNC(=N)N)NC(=O)[C@H](CC(C)C)NC(=O)CNC(=O)[C@H](CCC(=O)O)NC(=O)[C@H](CSSC[C@H](NC(=O)[C@@H](N)Cc4ccc(O)cc4)C(=O)N[C@@H](CCC(N)=O)C(=O)N[C@@H](CCCCN)C(=O)N[C@@H](Cc4c[nH]c5ccccc45)C(=O)N[C@@H](CCSC)C(=O)N[C@@H](Cc4c[nH]c5ccccc45)C(=O)N[C@@H]([C@@H](C)O)C(=O)N3)NC2=O)C(=O)N[C@@H](CCC(=O)O)C(=O)N[C@@H](CC(C)C)C(=O)N[C@@H](Cc2c[nH]c3ccccc23)C(=O)N1)[C@@H](C)CC)C(N)=O [compound 64] | 930 | 5 | 4340 | – | – | –
C#CC[C@@H]1NC(=O)[C@H](CC(=O)O)NC(=O)[C@@H]2CSSC[C@@H]3NC(=O)[C@H](CCCNC(=N)N)NC(=O)[C@H](CC(C)C)NC(=O)CNC(=O)[C@H](CCC(=O)O)NC(=O)[C@H](CSSC[C@H](NC(=O)[C@H](Cc4ccc(O)cc4)NC(=O)[C@@H](N)CC#N)C(=O)N[C@@H](CCC(N)=O)C(=O)N[C@@H](CCCCN)C(=O)N[C@@H](Cc4c[nH]c5ccccc45)C(=O)N[C@@H](CCCC)C(=O)N[C@@H](Cc4c[nH]c5ccccc45)C(=O)N[C@@H]([C@@H](C)O)C(=O)N2)NC(=O)[C@H](CSSC[C@@H](C(=O)N[C@@H](CCCNC(=N)N)C(=O)N[C@@H](CCCCN)C(=O)N[C@@H](CCC(=O)O)C(=O)N[C@H](C(N)=O)[C@@H](C)CC)NC(=O)[C@H](Cc2c[nH]c4ccccc24)NC(=O)[C@H](CC(C)C)NC(=O)[C@H](CCCCN)NC3=O)NC(=O)[C@H](C)NC(=O)[C@H](CCCNC(=N)N)NC(=O)[C@H](CCCCN)NC1=O [compound 520] | – | – | – | 0.193 | 517 | 2673
C#CC[C@H](N)C(=O)N[C@@H](Cc1ccc(O)cc1)C(=O)N[C@H]1CSSC[C@@H]2NC(=O)[C@@H]3CSSC[C@@H](C(=O)N[C@@H](CCCNC(=N)N)C(=O)N[C@@H](CCCCN)C(=O)N[C@@H](CCC(=O)O)C(=O)N[C@@H](Cc4c[nH]c5ccccc45)C(N)=O)NC(=O)[C@H](Cc4c[nH]c5ccccc45)NC(=O)[C@H](CC(C)C)NC(=O)[C@H](CCCCN)NC(=O)[C@H](CSSC[C@H](NC(=O)[C@H]([C@@H](C)O)NC(=O)[C@H](Cc4c[nH]c5ccccc45)NC(=O)[C@H](CCCC)NC(=O)[C@H](Cc4c[nH]c5ccccc45)NC(=O)[C@H](CCCCN)NC(=O)[C@H](CCC(N)=O)NC1=O)C(=O)N[C@@H](CC(=O)O)C(=O)N[C@@H](CO)C(=O)N[C@@H](CCCCN)C(=O)N[C@@H](CCCNC(=N)N)C(=O)N[C@@H](C)C(=O)N3)NC(=O)[C@H](CCCNC(=N)N)NC(=O)[C@H](CC(C)C)NC(=O)CNC(=O)[C@H](CCC(=O)O)NC2=O [compound 450] | – | – | – | 0.782 | 36.7 | 47
C#CC[C@H](N)C(=O)N[C@@H](Cc1ccc(O)cc1)C(=O)N[C@H]1CSSC[C@@H]2NC(=O)[C@@H]3CSSC[C@@H](C(=O)N[C@@H](CCCNC(=N)N)C(=O)N[C@@H](CCCCN)C(=O)N[C@H](C(=O)N[C@H](C(N)=O)[C@@H](C)CC)[C@@H](C)CC)NC(=O)[C@H](Cc4c[nH]c5ccc(Br)cc45)NC(=O)[C@H](CC(C)C)NC(=O)[C@H](CCCCN)NC(=O)[C@H](CSSC[C@H](NC(=O)[C@H]([C@@H](C)O)NC(=O)[C@H](Cc4c[nH]c5ccccc45)NC(=O)[C@H](CCCC)NC(=O)[C@H](Cc4c[nH]c5ccccc45)NC(=O)[C@H](CCCCN)NC(=O)[C@H](CCC(N)=O)NC1=O)C(=O)N[C@@H](CC(=O)O)C(=O)N[C@@H](CO)C(=O)N[C@@H](CCCCN)C(=O)N[C@@H](CCCNC(=N)N)C(=O)N[C@@H](C)C(=O)N3)NC(=O)[C@H](CCCNC(=N)N)NC(=O)[C@H](CC(C)C)NC(=O)CNC(=O)[C@H](CCC(=O)O)NC2=O [compound 871] | – | – | – | 1.66 | 11 | 7
C#CC[C@@H]1NC(=O)[C@@H]2CSSC[C@H](NC(=O)[C@H](Cc3ccc(O)cc3)NC(=O)[C@@H](N)CC#N)C(=O)N[C@@H](CCC(N)=O)C(=O)N[C@@H](CCCCN)C(=O)N[C@@H](Cc3c[nH]c4ccccc34)C(=O)N[C@@H](CCCC)C(=O)N[C@@H](Cc3c[nH]c4ccccc34)C(=O)N[C@@H]([C@@H](C)O)C(=O)N[C@H]3CSSC[C@H](NC(=O)[C@H](CCC(=O)O)NC(=O)[C@H](CC(C)C)NC(=O)CNC1=O)C(=O)N[C@@H](CCCCN)C(=O)N[C@@H](CC(C)C)C(=O)N[C@@H](Cc1c[nH]c4ccccc14)C(=O)N[C@H](C(=O)N[C@@H](CCCNC(=N)N)C(=O)N[C@@H](CCCCN)C(=O)N[C@H](C(=O)N[C@H](C(N)=O)[C@@H](C)CC)[C@@H](C)CC)CSSC[C@H](NC(=O)[C@H](C)NC(=O)[C@H](CCCNC(=N)N)NC(=O)[C@H](CCCCN)NC(=O)[C@H](CO)NC(=O)[C@H](CC(=O)O)NC3=O)C(=O)N2 [compound 396] | – | – | – | 2.84 | 278 | 98
C#CC[C@@H]1NC(=O)[C@@H]2CSSC[C@H](NC(=O)[C@H](Cc3ccc(O)cc3)NC(=O)[C@@H](N)CC#N)C(=O)N[C@@H](CCC(N)=O)C(=O)N[C@@H](CCCCN)C(=O)N[C@@H](Cc3c[nH]c4ccccc34)C(=O)N[C@@H](CCCC)C(=O)N[C@@H](Cc3c[nH]c4ccccc34)C(=O)N[C@@H]([C@@H](C)O)C(=O)N[C@H]3CSSC[C@H](NC(=O)[C@H](CCCNC(=N)N)NC(=O)[C@H](CC(C)C)NC(=O)CNC1=O)C(=O)N[C@@H](CCCCN)C(=O)N[C@@H](CC(C)C)C(=O)N[C@@H](Cc1c[nH]c4ccc(Br)cc14)C(=O)N[C@H](C(=O)N[C@@H](CCCNC(=N)N)C(=O)N[C@@H](CCCCN)C(=O)N[C@H](C(=O)N[C@H](C(N)=O)[C@@H](C)CC)[C@@H](C)CC)CSSC[C@H](NC(=O)[C@H](C)NC(=O)[C@H](CCCNC(=N)N)NC(=O)[C@H](CCCCN)NC(=O)[C@H](CO)NC(=O)[C@H](CC(=O)O)NC3=O)C(=O)N2 [compound 872] | – | – | – | 1.09 | 3.6 | 3
C#CC[C@@H]1NC(=O)[C@@H]2CSSC[C@H](NC(=O)[C@H](Cc3ccc(O)cc3)NC(=O)[C@@H](N)CC#N)C(=O)N[C@@H](CCC(N)=O)C(=O)N[C@@H](CCCCN)C(=O)N[C@@H](Cc3c[nH]c4ccccc34)C(=O)N[C@@H](CCCC)C(=O)N[C@@H](Cc3c[nH]c4ccccc34)C(=O)N[C@@H]([C@@H](C)O)C(=O)N[C@H]3CSSC[C@H](NC(=O)[C@H](CCCNC(=N)N)NC(=O)[C@H](CC(C)C)NC(=O)CNC1=O)C(=O)N[C@@H](CCCCN)C(=O)N[C@@H](CC(C)C)C(=O)N[C@@H](Cc1c[nH]c4ccc(Br)cc14)C(=O)N[C@H](C(=O)N[C@@H](CCCNC(=N)N)C(=O)N[C@@H](CCCCN)C(=O)N[C@H](C(=O)N[C@H](C(N)=O)[C@@H](C)CC)[C@@H](C)CC)CSSC[C@H](NC(=O)[C@H](C)NC(=O)[C@H](CCCNC(=N)N)NC(=O)[C@H](CCCCN)NC(=O)[C@H](CCC(=O)O)NC(=O)[C@H](CC(=O)O)NC3=O)C(=O)N2 [compound 1244] | – | – | – | 0.64 | 7.4 | 12
